Source: patent US20120295907A1, “INSECTICIDAL COMPOUNDS” (SYNGENTA CROP PROTECTION, LLC, priority 2009, published 2012)

How the values were obtained:
Format in all cases: in vivo
[1] = system: Spodoptera littoralis; test: Spodoptera littoralis (Egyptian Cotton Leafworm) cotton leaf disc spray test; conditions: foliar, 72 h, 200 ppm spray on cotton leaf discs, L1 larvae, mortality, feeding behavior, growth regulation 3 DAT
[2] = system: Tetranychus urticae; test: Tetranychus urticae (Two-Spotted Spider Mite) bean leaf disc spray test; conditions: foliar, 192 h, 200 ppm spray on bean leaf discs, mite populations of mixed ages, 8 days, egg, larval and adult mortality, read-out: control of Tetranychus urticae
[3] = system: Plutella xylostella; test: Plutella xylostella (Diamond Back Moth) artificial diet MTP test; conditions: 144 h, 200 ppm (concentration in well 18 ppm), L2 larvae, 6 days, larval mortality, growth regulation
[4] = system: Thrips tabaci; test: Thrips tabaci (Onion Thrips) sunflower leaf disc spray test; conditions: foliar, 168 h, 200 ppm spray on sunflower leaf discs, population of mixed ages, 7 days, mortality
[5] = system: Heliothis virescens; test: Heliothis virescens (Tobacco Budworm) egg test on artificial diet; conditions: 96 h, 200 ppm (concentration in well 18 ppm), eggs 0-24 h old on artificial diet, 4 days, egg mortality, larval mortality, growth regulation
[6] = system: Diabrotica balteata; test: Diabrotica balteata (Corn Root Worm) artificial diet MTP test; conditions: 120 h, 200 ppm (concentration in well 18 ppm), L2 larvae, 5 days, larval mortality, growth regulation

Measured: pest or weed control at 200 ppm

CCc1cc(C(F)(C(F)(F)F)C(F)(F)C(F)(F)F)cc(C)c1NC(=O)c1cccc(NC(=O)c2cc(Cl)ccc2Cl)c1OC (stereo not drawn) [A16]
≥ 80%: all assays above

COc1c(NC(=O)c2c(F)cc(F)cc2F)cccc1C(=O)Nc1c(C)cc(C(F)(C(F)(F)F)C(F)(F)F)cc1C [K1]
≥ 80%: all assays above

COc1c(NC(=O)c2sc(C)nc2C(F)(F)F)cccc1C(=O)Nc1c(Cl)cc(C(F)(C(F)(F)F)C(F)(F)C(F)(F)F)cc1Br (stereo not drawn) [B134]
≥ 80%: all assays above

COc1c(NC(=O)c2cc(C(F)(F)F)nn2C)cccc1C(=O)Nc1c(Cl)cc(C(F)(C(F)(F)F)C(F)(F)C(F)(F)F)cc1Br (stereo not drawn) [B113]
≥ 80%: all assays above

COc1c(NC(=O)c2cccc(CC#N)c2)cccc1C(=O)Nc1c(Cl)cc(C(F)(C(F)(F)F)C(F)(F)C(F)(F)F)cc1Br (stereo not drawn) [B110]
≥ 80%: all assays above

COc1c(NC(=O)c2ccccc2C(F)(F)F)cccc1C(=O)Nc1c(Cl)cc(C(F)(C(F)(F)F)C(F)(F)C(F)(F)F)cc1Cl (stereo not drawn) [C20]
≥ 80%: all assays above

COc1c(NC(=O)c2ccc(Cl)cc2[N+](=O)[O-])cccc1C(=O)Nc1c(Cl)cc(C(F)(C(F)(F)F)C(F)(F)C(F)(F)F)cc1Br (stereo not drawn) [B64]
≥ 80%: all assays above

COc1c(NC(=O)c2cccc([N+](=O)[O-])c2Cl)cccc1C(=O)Nc1c(Cl)cc(C(F)(C(F)(F)F)C(F)(F)C(F)(F)F)cc1Br (stereo not drawn) [B183]
≥ 80%: all assays above

COc1c(NC(=O)c2cc(C)ccc2[N+](=O)[O-])cccc1C(=O)Nc1c(Cl)cc(C(F)(C(F)(F)F)C(F)(F)C(F)(F)F)cc1Br (stereo not drawn) [B74]
≥ 80%: all assays above

COc1c(NC(=O)c2cc(Cl)nc(Cl)c2)cccc1C(=O)Nc1c(Cl)cc(C(F)(C(F)(F)F)C(F)(F)C(F)(F)F)cc1Br (stereo not drawn) [B97]
≥ 80%: all assays above

COc1c(NC(=O)c2ccc([N+](=O)[O-])cc2)cccc1C(=O)Nc1c(C)cc(C(F)(C(F)(F)F)C(F)(F)C(F)(F)F)cc1C (stereo not drawn) [F29]
≥ 80%: all assays above

COc1c(NC(=O)c2cccc(Cl)c2Cl)cccc1C(=O)Nc1c(Cl)cc(C(F)(C(F)(F)F)C(F)(F)C(F)(F)F)cc1Br (stereo not drawn) [B184]
≥ 80%: all assays above

COc1c(NC(=O)c2cccc(F)c2F)cccc1C(=O)Nc1c(Cl)cc(C(F)(C(F)(F)F)C(F)(F)C(F)(F)F)cc1Cl (stereo not drawn) [C22]
≥ 80%: all assays above

COc1c(NC(=O)c2snnc2C)cccc1C(=O)Nc1c(Cl)cc(C(F)(C(F)(F)F)C(F)(F)C(F)(F)F)cc1Br (stereo not drawn) [B21]
≥ 80%: all assays above

COc1c(NC(=O)c2cc(F)c(F)cc2Cl)cccc1C(=O)Nc1c(Cl)cc(C(F)(C(F)(F)F)C(F)(F)C(F)(F)F)cc1Br (stereo not drawn) [B73]
≥ 80%: all assays above

COc1c(NC(=O)c2cccc(C#N)c2)cccc1C(=O)Nc1c(C)cc(C(F)(C(F)(F)F)C(F)(F)C(F)(F)F)cc1C (stereo not drawn) [F21]
≥ 80%: all assays above

COc1c(NC(=O)c2ccc(F)cc2F)cccc1C(=O)Nc1c(Cl)cc(C(F)(C(F)(F)F)C(F)(F)C(F)(F)F)cc1Cl (stereo not drawn) [C23]
≥ 80%: all assays above

COc1c(NC(=O)c2snnc2C)cccc1C(=O)Nc1c(Cl)cc(C(F)(C(F)(F)F)C(F)(F)F)cc1Cl [E20]
≥ 80%: all assays above

CCc1cc(C(F)(C(F)(F)F)C(F)(F)C(F)(F)F)cc(C)c1NC(=O)c1cccc(NC(=O)c2cccnc2Cl)c1OC (stereo not drawn) [A6]
≥ 80%: all assays above

COc1c(NC(=O)c2ccc(F)cc2C)cccc1C(=O)Nc1c(Cl)cc(C(F)(C(F)(F)F)C(F)(F)F)cc1Cl [E7]
≥ 80%: all assays above

COc1c(NC(=O)c2ccc(C(F)(F)F)nc2C)cccc1C(=O)Nc1c(Cl)cc(C(F)(C(F)(F)F)C(F)(F)C(F)(F)F)cc1Br (stereo not drawn) [B127]
≥ 80%: all assays above
